Assay results taken from patent US20260374773A1, “MULTI-CYCLIC IRAK AND FLT3 INHIBITING COMPOUNDS AND USES THEREOF” (CHILDREN'S HOSPITAL MEDICAL CENTER, priority 2022, published 2026).
Like-named read-outs stand apart in the source and are kept apart here.

Columns and labels:
Assay type in all cases: cell-based
[1] = tested on: NF-κB; test: NF-κB SEAP reporter assay in THP-1-Blue NF-κB cells, Pam3CSK4 stimulated; settings: THP-1-Blue cells, 1 ng/ml Pam3CSK4, 24 h, read-out: NF-κB Pam3SCK4 IC50
Protocol: (§1) THP-1-Blue NF-κB cells (InvivoGen) carrying a stable integrated NF-κB-inducible secreted embryonic alkaline phosphatase (SEAP) reporter construct were plated at a concentration of 1×10^5 cells per well. The cells were stimulated with Pam3CSK4 (1 ng/ml) or hIL1B (1 ng/ml). After 10-20 minutes, the cells were then treated with vehicle (DMSO) or serial dilutions of the test compounds (10 doses tested for each test compound, with a […] starting at 1 μM or 3 μM) with a final volume of 200 μL for 24 hours at 37 °C. After 24 hours, the cells were centrifuged and 20 μL supernatant was incubated with 180 μL QUANTI-Blue reagent at 37 °C for 30-60 minutes. The levels of NF-κB-induced was measured in a microplate reader at 620 nm.
as §1, with “1 mM” for “1 μM”, “3 mM)” for “3 μM)”, “200 mL” for “200 μL”, “20 mL” for “20 μL”, “180 mL” for “180 μL”, “NF-κB-induced gene expression were” for “NF-κB-induced was”

[2] = tested on: MOLM14 D835Y cells; test: MOLM14 D835Y cell viability (Cell Titer Glo); settings: Homo sapiens
Protocol: (§2) Both cell lines have activated FLT3 receptors, each of which carry additional resistance mutations in the kinase domain (D835Y and F691L, respectively).
(§3) MOLM14 D835Y and MOLM14 F691L cells were grown in RPMI-1640 media supplemented with 20% fetal bovine serum (FBS). For viability/cytotoxicity assessments, cells were seeded into 1536-well white polystyrene tissue culture-treated Greiner plates using a Multidrop Combi dispenser (ThermoFisher), in final volume 5 μL of growth media per well, at a density of 1000 cells per well. After cell addition, 23 nL of test compound were transferred into individual wells (22 doses tested for each test compound, with a 1:2 dilution series starting at 10 μM) via a 1536 pin-tool. Bortezomib (final concentration 2.3 μM) was used as a positive control for cell cytotoxicity. Plates were incubated for 48 hours at standard incubator conditions covered by a stainless steel gasketed lid to prevent evaporation. 48 hours post compound addition, 3 μL of Cell Titer Glo (Promega) were added to each well and plates were incubated at room temperature for 15 minutes with the stainless-steel lid in place. Luminescence readings were taken using a Viewlux imager (PerkinElmer) with a 2 second exposure time per plate.
This cell line has activated FLT3 receptors, which carries an additional resistance mutation in the kinase domain at D835Y.
as §3, with “D835Y” for “D835Y and MOLM14 F691L”, “mL” for “μL”, “mM)” for “μM)”

[3] = tested on: MOLM14 F691L cells; test: MOLM14 F691L cell viability (Cell Titer Glo); settings: Homo sapiens
Protocol: as §2, §3

SMILES	IC50 ([1]; Table 21) [nM]	IC50 ([2]; MOLM-14, Table 22, 48 h) [nM]	IC50 ([3]; MOLM-14, Table 22, 48 h) [nM]	IC50 ([1]; Table 15) [nM]	IC50 ([2]; MOLM-14, Table 16, 48 h) [nM]	IC50 ([3]; MOLM-14, Table 16, 48 h) [nM]
COc1cn2ncc(-c3nc(N[C@H]4CNCC[C@@H]4F)ncc3F)c2nc1C(C)(C)O [Compound 6a, 2-(3-(5-fluoro-2-(((3S,4S)-4-fluoropiperidin-3-yl)amino)pyrimidin-4-yl)-6-methoxypyrazolo[1,5-a]pyrimidin-5-yl)propan-2-ol]	57	5	45	–	–	–
COc1cn2ncc(-c3nc(N[C@H]4CNC[C@@H]4F)ncc3F)c2nc1C1CC1 [Compound 13a, 4-(5-cyclopropyl-6-methoxypyrazolo[1,5-a]pyrimidin-3-yl)-5-fluoro-N-((3S,4S)-4-fluoropyrrolidin-3-yl)pyrimidin-2-amine]	19	4	–	–	–	–
COc1cn2ncc(-c3nc(N[C@@H]4CCCNC4)c(C#N)cc3F)c2nc1C(C)(C)O [Compound 9, (R)-5-fluoro-6-(5-(2-hydroxypropan-2-yl)-6-methoxypyrazolo[1,5-a]pyrimidin-3-yl)-2-(piperidin-3-ylamino)nicotinonitrile]	–	–	–	39	16	142
COc1cn2ncc(-c3nc(N[C@@H]4CCCNC4)ncc3F)c2nc1C1CC1 [Compound 14a, (R)-4-(5-cyclopropyl-6-methoxypyrazolo[1,5-a]pyrimidin-3-yl)-5-fluoro-N-(piperidin-3-yl)pyrimidin-2-amine]	15	1	–	–	–	–
COc1cn2ncc(-c3ccnc(N[C@H]4CNCC[C@@H]4F)n3)c2nc1C1CC1 [Compound 7a, 4-(5-cyclopropyl-6-methoxypyrazolo[1,5-a]pyrimidin-3-yl)-N-((3S,4S)-4-fluoropiperidin-3-yl)pyrimidin-2-amine]	55	7	–	–	–	–
COc1cn2ncc(-c3ccc(F)c(N[C@H]4CNCC[C@@H]4F)n3)c2nc1C1CC1 [Compound 6, 6-(5-cyclopropyl-6-methoxypyrazolo[1,5-a]pyrimidin-3-yl)-3-fluoro-N-((3S,4S)-4-fluoropiperidin-3-yl)pyridin-2-amine]	–	–	–	300	11	71
COc1cn2ncc(-c3ccc(F)c(N[C@@H]4CCCNC4)n3)c2nc1C1CC1 [Compound 5, (R)-6-(5-cyclopropyl-6-methoxypyrazolo[1,5-a]pyrimidin-3-yl)-3-fluoro-N-(piperidin-3-yl)pyridin-2-amine]	–	–	–	–	20	127
COc1cn2ncc(-c3nc(N[C@H]4CNCC[C@@H]4F)ccc3F)c2nc1C1CC1 [Compound 3, 6-(5-cyclopropyl-6-methoxypyrazolo[1,5-a]pyrimidin-3-yl)-5-fluoro-N-((3S,4S)-4-fluoropiperidin-3-yl)pyridin-2-amine]	–	–	–	22	2	6
COc1cn2ncc(-c3cccc(N[C@H]4CNC[C@@H]4F)n3)c2nc1C1CC1 [Compound 19, 6-(5-cyclopropyl-6-methoxypyrazolo[1,5-a]pyrimidin-3-yl)-N-((3S,4S)-4-fluoropyrrolidin-3-yl)pyridin-2-amine]	–	–	–	61	58	–
COc1cn2ncc(-c3nc(N[C@H]4CNCC[C@@H]4F)c(F)cc3F)c2nc1C1CC1 [Compound 22, 6-(5-cyclopropyl-6-methoxypyrazolo[1,5-a]pyrimidin-3-yl)-3,5-difluoro-N-((3S,4S)-4-fluoropiperidin-3-yl)pyridin-2-amine]	–	–	–	7	2	–
COc1cn2ncc(-c3nc(N[C@@H]4CCCNC4)ncc3F)c2nc1C(C)(C)O [Compound 4a, (R)-2-(3-(5-fluoro-2-(piperidin-3-ylamino)pyrimidin-4-yl)-6-methoxypyrazolo[1,5-a]pyrimidin-5-yl)propan-2-ol]	–	11	101	–	–	–
COc1cn2ncc(-c3nc(N[C@H]4CNC[C@@H]4F)c(F)cc3F)c2nc1C1CC1 [Compound 24, 6-(5-cyclopropyl-6-methoxypyrazolo[1,5-a]pyrimidin-3-yl)-3,5-difluoro-N-((3S,4S)-4-fluoropyrrolidin-3-yl)pyridin-2-amine]	–	–	–	–	2	–
COc1cn2ncc(-c3ccnc(N[C@H]4CNC[C@@H]4F)n3)c2nc1C1CC1 [Compound 8a, 4-(5-cyclopropyl-6-methoxypyrazolo[1,5-a]pyrimidin-3-yl)-N-((3S,4S)-4-fluoropyrrolidin-3-yl)pyrimidin-2-amine]	72	26	–	–	–	–
COc1cn2ncc(-c3cccc(N[C@@H]4CCCNC4)n3)c2nc1C1CC1 [Compound 20, (R)-6-(5-cyclopropyl-6-methoxypyrazolo[1,5-a]pyrimidin-3-yl)-N-(piperidin-3-yl)pyridin-2-amine]	–	–	–	441	41	–
COc1cn2ncc(-c3nc(N[C@H]4CNCC[C@@H]4F)c(C#N)cc3F)c2nc1C(C)(C)O [Compound 10, 5-fluoro-2-(((3S,4S)-4-fluoropiperidin-3-yl)amino)-6-(5-(2-hydroxypropan-2-yl)-6-methoxypyrazolo[1,5-a]pyrimidin-3-yl)nicotinonitrile]	–	–	–	22	–	–
COc1cn2ncc(-c3ccnc(N[C@H]4CNCC[C@@H]4F)n3)c2nc1C(C)(C)O [Compound 3a, 2-(3-(2-(((3S,4S)-4-fluoropiperidin-3-yl)amino)pyrimidin-4-yl)-6-methoxypyrazolo[1,5-a]pyrimidin-5-yl)propan-2-ol]	–	86	565	–	–	–
COc1cn2ncc(-c3cncc(N[C@H]4CNCC[C@@H]4F)n3)c2nc1C1CC1 [Compound 12a, 6-(5-cyclopropyl-6-methoxypyrazolo[1,5-a]pyrimidin-3-yl)-N-((3S,4S)-4-fluoropiperidin-3-yl)pyrazin-2-amine]	83	12	–	–	–	–
COc1cn2ncc(-c3nc(N[C@H]4CNCC[C@@H]4F)c(F)cc3F)c2nc1C(C)(C)O [Compound 13, 2-(3-(3,5-difluoro-6-(((3S,4S)-4-fluoropiperidin-3-yl)amino)pyridin-2-yl)-6-methoxypyrazolo[1,5-a]pyrimidin-5-yl)propan-2-ol]	–	–	–	99	14	113
COc1cn2ncc(-c3nc(N[C@H]4CNCC[C@@H]4F)ncc3F)c2nc1C1CC1 [Compound 15a, 4-(5-cyclopropyl-6-methoxypyrazolo[1,5-a]pyrimidin-3-yl)-5-fluoro-N-((3S,4S)-4-fluoropiperidin-3-yl)pyrimidin-2-amine]	5	2	–	–	–	–
COc1cn2ncc(-c3cccc(N[C@H]4CNCC[C@@H]4F)n3)c2nc1C1CC1 [Compound 21, 6-(5-cyclopropyl-6-methoxypyrazolo[1,5-a]pyrimidin-3-yl)-N-((3S,4S)-4-fluoropiperidin-3-yl)pyridin-2-amine]	–	–	–	362	46	–
COc1cn2ncc(-c3cncc(N[C@@H]4CCCNC4)n3)c2nc1C1CC1 [Compound 11a, (R)-6-(5-cyclopropyl-6-methoxypyrazolo[1,5-a]pyrimidin-3-yl)-N-(piperidin-3-yl)pyrazin-2-amine]	331	29	–	–	–	–
COc1cn2ncc(-c3nc(N[C@H]4CNC[C@@H]4F)ncc3F)c2nc1C(C)(C)O [Compound 5a, 2-(3-(5-fluoro-2-(((3S,4S)-4-fluoropyrrolidin-3-yl)amino)pyrimidin-4-yl)-6-methoxypyrazolo[1,5-a]pyrimidin-5-yl)propan-2-ol]	–	25	225	–	–	–
